≈ marks a conversion by molar mass, not a printed value. Where “and” joins values, the source holds several entries; their conditions need not be identical. Identical values can stand only once. Starred links: 1 amine or outer side, 2 acyl side, 3 side chain; linkers in the order of their positions; H or OH if unused. Non-standard residues stand in square brackets, D forms with d. Residues, ends and D or L forms follow the SMILES beside them. *: point of attachment. X2 = C=CCN([C@@H](C)C(=O)[*:2])[*:1]; X1 = O=C(CN(CC(Br)CBr)[*:1])[*:2]; X3 = O=C(CN(CC(Cl)CCl)[*:1])[*:2]; NAllylGly = C=CCNCC(=O)O; Boc = CC(C)(C)OC(=O)*
Assays:
[1] = target: Human immunodeficiency virus type 1 protease (Human immunodeficiency virus 1, UniProt Q72874); experiment: Antiviral activity against HIV-1 in CEM cells.; type: functional, cell-based; details: ccrf-cem
CCRF-CEM [2] = experiment: Compound was tested for antiviral activity against HIV-1 in CEM cells; type: functional, cell-based; details: Homo sapiens
CCRF-CEM [3] = experiment: Dose required for reduce the reverse transcriptase activity in infected cell supernatant; type: functional, cell-based; details: Homo sapiens
[4] = target: Human immunodeficiency virus type 1 protease (Human immunodeficiency virus 1) (UniProt Q72874); experiment: Inhibitory activity against HIV-1 Protease using Suc-TLNFPIS-4-AMC as substrate in fluorescence assay at 10e-5 concentration
[5] = target: Human immunodeficiency virus type 1 protease (Human immunodeficiency virus 1) (UniProt Q72874); experiment: Inhibitory activity against HIV-1 Protease using VSQNF(NO2)PIV as substrate in spectrophotometric assay at 10e-5 concentration
[6] = Selectivity index between IC50 and EC50; type: functional
CCRF-CEM [7] = experiment: Compound was tested for antiviral activity against HIV-1 in CEM cells; Non active compound; type: functional, cell-based, Homo sapiens

| Structure (SMILES) | EC50 [1] | EC50 (CCRF-CEM [2]) [µg/mL] | EC50 (CCRF-CEM [3]) [µg/mL] | inhibition [4] [%] | inhibition [5] | Ratio [6] | IC50 (CCRF-CEM [7]) |
| --- | --- | --- | --- | --- | --- | --- | --- |
| C=CCN(CC(=O)N[C@H](C(=O)N[C@H](C(=O)OC)C(C)C)[C@@H](C)CC)C(=O)[C@H](Cc1ccccc1)NC(=O)[C@H](C)N (H-AF[NAllylGly]IV-OMe) | Not Active |  |  |  |  |  |  |
| CC[C@H](C)[C@H](NC(=O)CN(CC(Br)CBr)C(=O)[C@H](Cc1ccccc1)NC(=O)[C@H](C)NC(=O)OC(C)(C)C)C(=O)N[C@H](C(=O)OC)C(C)C (stereo partly specified) (Boc-AF[X1]IV-OMe) |  | 111 (≈ 135 µM) | 200 (≈ 244 µM) | 0 | 3% and 0% | > 4.5 |  |
| C=CCNCC(=O)N[C@H](C(=O)N[C@H](C(=O)OC)C(C)C)[C@@H](C)CC | Not Active |  |  |  |  |  |  |
| C=CCN(CC(=O)N[C@H](C(=O)N[C@H](C(=O)OC)C(C)C)[C@@H](C)CC)C(=O)[C@H](Cc1ccccc1)NC(=O)[C@H](C)NC(=O)OC(C)(C)C (Boc-AF[NAllylGly]IV-OMe) |  | 8.15 (≈ 12.4 µM) | 10 (≈ 15.2 µM) | 0 | 1% and 4% | 4.03 |  |
| C=CCN(CC(=O)N[C@H](C(=O)N[C@H](C(=O)OC)C(C)C)[C@@H](C)CC)C(=O)[C@@H](N)Cc1ccccc1 (H-F[NAllylGly]IV-OMe) | Not Active |  |  |  |  |  |  |
| CC[C@H](C)[C@H](NC(=O)CN(CC(Br)CBr)C(=O)[C@H](Cc1ccccc1)NC(=O)OC(C)(C)C)C(=O)N[C@H](C(=O)OC)C(C)C (stereo partly specified) | Not Active |  |  | 0 | 8% and 10% |  |  |
| C=CCN(CC(=O)N[C@H](C(=O)N[C@H](C(=O)OC)C(C)C)[C@@H](C)CC)C(=O)[C@H](Cc1ccccc1)NC(=O)[C@H](C)NC(=O)[C@H](C)NC(=O)OC(C)(C)C (Boc-AAF[NAllylGly]IV-OMe) | Not Active |  |  | 0 | 0% and 21% |  | Not Active |
| CC[C@H](C)[C@H](NC(=O)CN(CC(Cl)CCl)C(=O)[C@H](Cc1ccccc1)NC(=O)[C@H](C)NC(=O)OC(C)(C)C)C(=O)N[C@H](C(=O)OC)C(C)C (stereo partly specified) (Boc-AF[X3]IV-OMe) |  | > 100 | 100 (≈ 137 µM) | 0 | 0% and 12% |  |  |
| C=CCN(CC(=O)N[C@H](C(=O)N[C@H](C(=O)OC)C(C)C)[C@@H](C)CC)C(=O)[C@H](Cc1ccccc1)NC(=O)OC(C)(C)C (Boc-F[NAllylGly]IV-OMe) | Not Active |  |  | 0 | 10% and 13% |  |  |
| C=CCN(CC(=O)N[C@H](C(=O)N[C@H](C(=O)OC)C(C)C)[C@@H](C)CC)C(=O)[C@H](Cc1ccccc1)NC(=O)[C@H](C)NC(=O)[C@H](C)NC(=O)[C@H](CO)NC(=O)OC(C)(C)C (Boc-SAAF[NAllylGly]IV-OMe) | Not Active |  |  | 0 | 14% and 0% |  |  |
| C=CCN(C(=O)[C@H](Cc1ccccc1)NC(=O)[C@H](C)NC(=O)[C@H](C)NC(=O)OC(C)(C)C)[C@@H](C)C(=O)N[C@H](C(=O)N[C@H](C(=O)OC)C(C)C)[C@@H](C)CC (Boc-AAF[X2]IV-OMe) | Not Active |  |  | 1 | 0% |  |  |
| C=CCN(C(=O)[C@H](Cc1ccccc1)NC(=O)OC(C)(C)C)[C@@H](C)C(=O)N[C@H](C(=O)N[C@H](C(=O)OC)C(C)C)[C@@H](C)CC | Not Active |  |  | 3 | 0% and 7% |  |  |
| C=CCN(C(=O)[C@H](Cc1ccccc1)NC(=O)[C@H](C)NC(=O)[C@H](C)NC(=O)[C@H](CO)NC(=O)OC(C)(C)C)[C@@H](C)C(=O)N[C@H](C(=O)N[C@H](C(=O)OC)C(C)C)[C@@H](C)CC (Boc-SAAF[X2]IV-OMe) | Not Active |  |  |  |  |  |  |
| C=CCN(CC(=O)N[C@H](C(=O)N[C@H](C(=O)OC)C(C)C)[C@@H](C)CC)C(=O)OC(C)(C)C | Not Active |  |  |  |  |  |  |
| CC[C@H](C)[C@H](NC(=O)CN(CC(Cl)CCl)C(=O)[C@H](Cc1ccccc1)NC(=O)OC(C)(C)C)C(=O)N[C@H](C(=O)OC)C(C)C (stereo partly specified) | Not Active |  |  | 0 | 0% and 2% |  |  |
| C=CCN(C(=O)[C@H](Cc1ccccc1)NC(=O)[C@H](C)NC(=O)OC(C)(C)C)[C@@H](C)C(=O)N[C@H](C(=O)N[C@H](C(=O)OC)C(C)C)[C@@H](C)CC (Boc-AF[X2]IV-OMe) |  | 80 (≈ 119 µM) | 60 (≈ 89 µM) | 0 | 0% and 9% | > 2.51 |  |

— ChEMBL document CHEMBL1127713, “Anti-HIV activity of N-(2,3-dihalogenopropyl)- and N-allyl-glycine containing pentapeptides” (Bioorg Med Chem Lett, 1994)
